# According to PubChem BioAssay AID1259407 (Chemical Carcinogenesis Research Information System (CCRIS), 2018):
# Activity calls are given as the source filed them. How the calls were made is not given here.
# Test system: CCRIS mutagenicity, Ames/micronucleus/aberration tests
# Assay: CCRIS mutagenicity studies
# [1] = Test System: AMES SALMONELLA TYPHIMURIUM, Strain/Indicator: TA98, Metabolic Activation: NONE, Method: PREINCUBATION
# [2] = Test System: AMES SALMONELLA TYPHIMURIUM, Strain/Indicator: TA100, Metabolic Activation: NONE, Method: PREINCUBATION
# [3] = Test System: AMES SALMONELLA TYPHIMURIUM, Strain/Indicator: TA1535, Metabolic Activation: NONE, Method: PREINCUBATION
# [4] = Test System: AMES SALMONELLA TYPHIMURIUM, Strain/Indicator: TA98, Metabolic Activation: NONE, Method: STANDARD PLATE
# [5] = Test System: AMES SALMONELLA TYPHIMURIUM, Strain/Indicator: TA100, Metabolic Activation: NONE, Method: STANDARD PLATE
# [6] = Test System: AMES SALMONELLA TYPHIMURIUM, Strain/Indicator: TA98, Metabolic Activation: RAT, LIVER, S-9, PCB, Method: PREINCUBATION
# [7] = Test System: AMES SALMONELLA TYPHIMURIUM, Strain/Indicator: TA1535, Metabolic Activation: NONE, Method: STANDARD PLATE
structure (smiles),measurement,setting,value
CCCCCCCCCCCC[S][Sn]([CH2]CCC)([CH2]CCC)[S]CCCCCCCCCCCC,mutagenic call,"Test System: AMES SALMONELLA TYPHIMURIUM, Strain/Indicator: TA97, Metabolic Activation: HAMSTER, LIVER, S-9, AROCLOR 1254 (10%), Method: PREINCUBATION",inactive; negative
same,mutagenic call,"Test System: AMES SALMONELLA TYPHIMURIUM, Strain/Indicator: TA97, Metabolic Activation: HAMSTER, LIVER, S-9, AROCLOR 1254 (30%), Method: PREINCUBATION",inactive; negative
same,mutagenic call,"Test System: AMES SALMONELLA TYPHIMURIUM, Strain/Indicator: TA97, Metabolic Activation: NONE, Method: PREINCUBATION",inactive; negative
same,mutagenic call,"Test System: AMES SALMONELLA TYPHIMURIUM, Strain/Indicator: TA97, Metabolic Activation: RAT, LIVER, S-9, AROCLOR 1254 (10%), Method: PREINCUBATION",inactive; negative
same,mutagenic call,"Test System: AMES SALMONELLA TYPHIMURIUM, Strain/Indicator: TA97, Metabolic Activation: RAT, LIVER, S-9, AROCLOR 1254 (30%), Method: PREINCUBATION",inactive; negative
same,mutagenic call,"Test System: AMES SALMONELLA TYPHIMURIUM, Strain/Indicator: TA98, Metabolic Activation: HAMSTER, LIVER, S-9, AROCLOR 1254 (10%), Method: PREINCUBATION",inactive; negative
same,mutagenic call,"Test System: AMES SALMONELLA TYPHIMURIUM, Strain/Indicator: TA98, Metabolic Activation: HAMSTER, LIVER, S-9, AROCLOR 1254 (30%), Method: PREINCUBATION",inactive; negative
same,mutagenic call,[1],inactive; negative
same,mutagenic call,"Test System: AMES SALMONELLA TYPHIMURIUM, Strain/Indicator: TA98, Metabolic Activation: RAT, LIVER, S-9, AROCLOR 1254 (10%), Method: PREINCUBATION",inactive; negative
same,mutagenic call,"Test System: AMES SALMONELLA TYPHIMURIUM, Strain/Indicator: TA98, Metabolic Activation: RAT, LIVER, S-9, AROCLOR 1254 (30%), Method: PREINCUBATION",inactive; negative
same,mutagenic call,"Test System: AMES SALMONELLA TYPHIMURIUM, Strain/Indicator: TA100, Metabolic Activation: HAMSTER, LIVER, S-9, AROCLOR 1254 (10%), Method: PREINCUBATION",inactive; negative
same,mutagenic call,"Test System: AMES SALMONELLA TYPHIMURIUM, Strain/Indicator: TA100, Metabolic Activation: HAMSTER, LIVER, S-9, AROCLOR 1254 (30%), Method: PREINCUBATION",inactive; negative
same,mutagenic call,[2],inactive; negative
same,mutagenic call,"Test System: AMES SALMONELLA TYPHIMURIUM, Strain/Indicator: TA100, Metabolic Activation: RAT, LIVER, S-9, AROCLOR 1254 (10%), Method: PREINCUBATION",inactive; negative
same,mutagenic call,"Test System: AMES SALMONELLA TYPHIMURIUM, Strain/Indicator: TA100, Metabolic Activation: RAT, LIVER, S-9, AROCLOR 1254 (30%), Method: PREINCUBATION",inactive; negative
same,mutagenic call,"Test System: AMES SALMONELLA TYPHIMURIUM, Strain/Indicator: TA1535, Metabolic Activation: HAMSTER, LIVER, S-9, AROCLOR 1254 (10%), Method: PREINCUBATION",inactive; negative
same,mutagenic call,"Test System: AMES SALMONELLA TYPHIMURIUM, Strain/Indicator: TA1535, Metabolic Activation: HAMSTER, LIVER, S-9, AROCLOR 1254 (30%), Method: PREINCUBATION",inactive; negative
same,mutagenic call,[3],inactive; negative
same,mutagenic call,"Test System: AMES SALMONELLA TYPHIMURIUM, Strain/Indicator: TA1535, Metabolic Activation: RAT, LIVER, S-9, AROCLOR 1254 (10%), Method: PREINCUBATION",inactive; negative
same,mutagenic call,"Test System: AMES SALMONELLA TYPHIMURIUM, Strain/Indicator: TA1535, Metabolic Activation: RAT, LIVER, S-9, AROCLOR 1254 (30%), Method: PREINCUBATION",inactive; negative
COc1ccc(-c2nc(-c3ccc(C)cc3C)[nH]c2-c2ccc(OC)cc2)cc1,mutagenic call,[4],active; positive
same,mutagenic call,"Test System: AMES SALMONELLA TYPHIMURIUM, Strain/Indicator: TA98, Metabolic Activation: RAT LIVER S-9, 3-METHYLCHOLANTHRENE, SODIUM PHENOBARBITAL, Method: STANDARD PLATE",inactive; negative
same,mutagenic call,[5],active; positive
same,mutagenic call,"Test System: AMES SALMONELLA TYPHIMURIUM, Strain/Indicator: TA100, Metabolic Activation: RAT LIVER S-9, 3-METHYLCHOLANTHRENE, SODIUM PHENOBARBITAL, Method: STANDARD PLATE",inactive; negative
Nc1ccc2nc3c(N)cccc3nc2c1,mutagenic call,[1],inactive; negative
same,mutagenic call,[6],active; positive
C1COCCN1,mutagenic call,[1],inactive; negative
same,mutagenic call,"Test System: AMES SALMONELLA TYPHIMURIUM, Strain/Indicator: TA98, Metabolic Activation: RAT LIVER S-9, PHENOBARBITAL AND BETA-NAPHTHOFLAVONE, Method: PREINCUBATION",inactive; negative
same,mutagenic call,[6],inactive; negative
same,mutagenic call,[2],inactive; negative
same,mutagenic call,"Test System: AMES SALMONELLA TYPHIMURIUM, Strain/Indicator: TA100, Metabolic Activation: RAT LIVER S-9, PHENOBARBITAL AND BETA-NAPHTHOFLAVONE, Method: PREINCUBATION",inactive; negative
same,mutagenic call,"Test System: AMES SALMONELLA TYPHIMURIUM, Strain/Indicator: TA100, Metabolic Activation: RAT, LIVER, S-9, PCB, Method: PREINCUBATION",inactive; negative
same,mutagenic call,[3],inactive; negative
same,mutagenic call,"Test System: AMES SALMONELLA TYPHIMURIUM, Strain/Indicator: TA1535, Metabolic Activation: RAT LIVER S-9, PHENOBARBITAL AND BETA-NAPHTHOFLAVONE, Method: PREINCUBATION",inactive; negative
same,mutagenic call,"Test System: AMES SALMONELLA TYPHIMURIUM, Strain/Indicator: TA1537, Metabolic Activation: NONE, Method: PREINCUBATION",inactive; negative
same,mutagenic call,"Test System: AMES SALMONELLA TYPHIMURIUM, Strain/Indicator: TA1537, Metabolic Activation: RAT LIVER S-9, PHENOBARBITAL AND BETA-NAPHTHOFLAVONE, Method: PREINCUBATION",inactive; negative
same,mutagenic call,"Test System: E.COLI, Strain/Indicator: WP2UVRA, Metabolic Activation: NONE, Method: PREINCUBATION",inactive; negative
same,mutagenic call,"Test System: E.COLI, Strain/Indicator: WP2UVRA, Metabolic Activation: RAT LIVER S-9, PHENOBARBITAL AND BETA-NAPHTHOFLAVONE, Method: PREINCUBATION",inactive; negative
Cc1c2c(c(C)c3ccccc13)-c1cccc3cccc-2c13,mutagenic call,"Test System: AMES SALMONELLA TYPHIMURIUM, Strain/Indicator: TA100, Metabolic Activation: RAT, LIVER, S-9, AROCLOR 1254",active; positive
CC1=CC=C(C(C)C)CC1,mutagenic call,"Test System: AMES SALMONELLA TYPHIMURIUM, Strain/Indicator: TA97A, Metabolic Activation: NONE, Method: STANDARD PLATE",inactive; negative
same,mutagenic call,"Test System: AMES SALMONELLA TYPHIMURIUM, Strain/Indicator: TA97A, Metabolic Activation: RAT, LIVER, S-9, AROCLOR 1254, Method: STANDARD PLATE",inactive; negative
same,mutagenic call,[4],inactive; negative
same,mutagenic call,"Test System: AMES SALMONELLA TYPHIMURIUM, Strain/Indicator: TA98, Metabolic Activation: RAT, LIVER, S-9, AROCLOR 1254, Method: STANDARD PLATE",inactive; negative
same,mutagenic call,[5],inactive; negative
same,mutagenic call,"Test System: AMES SALMONELLA TYPHIMURIUM, Strain/Indicator: TA100, Metabolic Activation: RAT, LIVER, S-9, AROCLOR 1254, Method: STANDARD PLATE",inactive; negative
same,mutagenic call,[7],inactive; negative
same,mutagenic call,"Test System: AMES SALMONELLA TYPHIMURIUM, Strain/Indicator: TA1535, Metabolic Activation: RAT, LIVER, S-9, AROCLOR 1254, Method: STANDARD PLATE",inactive; negative
CC(=O)Nc1snc2ccc(Cl)cc12,mutagenic call,[4],inactive; negative
same,mutagenic call,"Test System: AMES SALMONELLA TYPHIMURIUM, Strain/Indicator: TA98, Metabolic Activation: S-9, Method: STANDARD PLATE",inactive; negative
same,mutagenic call,[5],inactive; negative
same,mutagenic call,"Test System: AMES SALMONELLA TYPHIMURIUM, Strain/Indicator: TA100, Metabolic Activation: S-9, Method: STANDARD PLATE",active; positive
same,mutagenic call,[7],inactive; negative
same,mutagenic call,"Test System: AMES SALMONELLA TYPHIMURIUM, Strain/Indicator: TA1535, Metabolic Activation: S-9, Method: STANDARD PLATE",inactive; negative
same,mutagenic call,"Test System: AMES SALMONELLA TYPHIMURIUM, Strain/Indicator: TA1537, Metabolic Activation: NONE, Method: STANDARD PLATE",inactive; negative
same,mutagenic call,"Test System: AMES SALMONELLA TYPHIMURIUM, Strain/Indicator: TA1537, Metabolic Activation: S-9, Method: STANDARD PLATE",active; positive
